Test results from the supplement of paper PMC8920030.

Key:
Details in all cases: growth mode: biofilm, 24 h; exposure time: 24 h
colistin [1] = compound: T1, CCC(C)CCCC(=O)N[C@@H](CCN)C(=O)N[C@H](C(=O)N[C@@H](CCN)C(=O)N[C@H]1CCNC(=O)[C@H]([C@@H](C)O)NC(=O)[C@H](CCN)NC(=O)[C@H](CCN)NC(=O)[C@H](CC(C)C)NC(=O)[C@@H](CC(C)C)NC(=O)[C@H](CCN)NC1=O)[C@@H](C)O [colistin]; experiment: minimum concentration of killing, 4-log CFU reduction of biofilm (MCK99.99); higher = more biofilm tolerance
Method: (§1)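 Clinical P. aeruginosa isolates were grown as static biofilms for 24 h at 37 °C in LB in half-area 96-well plates, then exposed for 24 h to colistin at 1, 4, 16, 64, 256 or […]. Surviving CFU were counted by spotting serial dilutions. MCK is the lowest tested concentration giving the stated log reduction in CFU versus an untreated control; '>1024' means the reduction was not reached at the top dose, and 1 is the lowest dose tested (≤1).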

tobramycin [2] = compound: T2, NC[C@H]1O[C@H](O[C@H]2[C@H](O)[C@@H](O[C@H]3O[C@H](CO)[C@@H](O)[C@H](N)[C@H]3O)[C@H](N)C[C@@H]2N)[C@H](N)C[C@@H]1O [tobramycin]; experiment: minimum concentration of killing, 1-log CFU reduction of biofilm (MCK90); higher = more biofilm tolerance
Method: (§2)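 Clinical P. aeruginosa isolates were grown as static biofilms for 24 h at 37 °C in LB in half-area 96-well plates, then exposed for 24 h to tobramycin at 1, 4, 16, 64, 256 or […]. Surviving CFU were counted by spotting serial dilutions. MCK is the lowest tested concentration giving the stated log reduction in CFU versus an untreated control; '>1024' means the reduction was not reached at the top dose, and 1 is the lowest dose tested (≤1).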

tobramycin [3] = compound: T2, tobramycin; experiment: minimum concentration of killing, 2-log CFU reduction of biofilm (MCK99); higher = more biofilm tolerance
Method: as §2

colistin [4] = compound: T1, colistin; experiment: as above
Method: as §1

tobramycin [5] = compound: T2, tobramycin; experiment: minimum concentration of killing, 4-log CFU reduction of biofilm (MCK99.99); higher = more biofilm tolerance
Method: as §2

colistin [6] = compound: T1, colistin; experiment: minimum concentration eradicating biofilm below detection limit (MCK-E); higher = more biofilm tolerance
Method: as §1

tobramycin [7] = compound: T2, tobramycin; experiment: as above
Method: as §2

colistin [8] = compound: T1, colistin; experiment: minimum concentration of killing, 1-log CFU reduction of biofilm (MCK90); higher = more biofilm tolerance
Method: as §1

Pseudomonas aeruginosa clinical isolate CH2522
minimum concentration of killing (colistin [1]): 256 µg/mL
minimum concentration of killing (tobramycin [2]): 16 µg/mL
minimum concentration of killing (tobramycin [3]): 16 µg/mL
minimum concentration of killing (colistin [4]): 64 µg/mL
minimum concentration of killing (tobramycin [5]): 1020 µg/mL
minimum concentration eradicating biofilm below detection limit (colistin [6]): 256 µg/mL
minimum concentration eradicating biofilm below detection limit (tobramycin [7]): 1020 µg/mL
minimum concentration of killing (colistin [8]): 64 µg/mL

Pseudomonas aeruginosa clinical isolate CH2527
minimum concentration of killing (colistin [1]): 256 µg/mL
minimum concentration of killing (tobramycin [2]): 64 µg/mL
minimum concentration of killing (tobramycin [3]): 64 µg/mL
minimum concentration of killing (colistin [4]): 256 µg/mL
minimum concentration of killing (tobramycin [5]): 256 µg/mL
minimum concentration eradicating biofilm below detection limit (colistin [6]): 256 µg/mL
minimum concentration eradicating biofilm below detection limit (tobramycin [7]): 1020 µg/mL
minimum concentration of killing (colistin [8]): 256 µg/mL

Pseudomonas aeruginosa clinical isolate CH2582
minimum concentration of killing (colistin [1]): 256 µg/mL
minimum concentration of killing (tobramycin [2]): ≤ 1 µg/mL
minimum concentration of killing (tobramycin [3]): 4 µg/mL
minimum concentration of killing (colistin [4]): 256 µg/mL
minimum concentration of killing (tobramycin [5]): 64 µg/mL
minimum concentration eradicating biofilm below detection limit (colistin [6]): 1020 µg/mL
minimum concentration eradicating biofilm below detection limit (tobramycin [7]): 64 µg/mL
minimum concentration of killing (colistin [8]): ≤ 1 µg/mL

Pseudomonas aeruginosa clinical isolate CH2597
minimum concentration of killing (colistin [1]): 256 µg/mL
minimum concentration of killing (tobramycin [2]): 256 µg/mL
minimum concentration of killing (tobramycin [3]): 256 µg/mL
minimum concentration of killing (colistin [4]): 256 µg/mL
minimum concentration of killing (tobramycin [5]): 256 µg/mL
minimum concentration eradicating biofilm below detection limit (colistin [6]): 256 µg/mL
minimum concentration eradicating biofilm below detection limit (tobramycin [7]): 256 µg/mL
minimum concentration of killing (colistin [8]): 256 µg/mL

Pseudomonas aeruginosa clinical isolate CH2598
minimum concentration of killing (colistin [1]): 256 µg/mL
minimum concentration of killing (tobramycin [2]): 4 µg/mL
minimum concentration of killing (tobramycin [3]): 16 µg/mL
minimum concentration of killing (colistin [4]): 256 µg/mL
minimum concentration of killing (tobramycin [5]): 256 µg/mL
minimum concentration eradicating biofilm below detection limit (colistin [6]): 256 µg/mL
minimum concentration eradicating biofilm below detection limit (tobramycin [7]): 256 µg/mL
minimum concentration of killing (colistin [8]): 256 µg/mL

Pseudomonas aeruginosa clinical isolate CH2658
minimum concentration of killing (colistin [1]): 256 µg/mL
minimum concentration of killing (tobramycin [2]): 4 µg/mL
minimum concentration of killing (tobramycin [3]): 16 µg/mL
minimum concentration of killing (colistin [4]): 256 µg/mL
minimum concentration of killing (tobramycin [5]): 64 µg/mL
minimum concentration eradicating biofilm below detection limit (colistin [6]): 256 µg/mL
minimum concentration eradicating biofilm below detection limit (tobramycin [7]): 256 µg/mL
minimum concentration of killing (colistin [8]): 64 µg/mL

Pseudomonas aeruginosa clinical isolate CH2660
minimum concentration of killing (colistin [1]): 256 µg/mL
minimum concentration of killing (tobramycin [2]): 4 µg/mL
minimum concentration of killing (tobramycin [3]): 64 µg/mL
minimum concentration of killing (colistin [4]): 256 µg/mL
minimum concentration of killing (tobramycin [5]): 64 µg/mL
minimum concentration eradicating biofilm below detection limit (colistin [6]): 256 µg/mL
minimum concentration eradicating biofilm below detection limit (tobramycin [7]): 256 µg/mL
minimum concentration of killing (colistin [8]): 64 µg/mL

Pseudomonas aeruginosa clinical isolate CH2672
minimum concentration of killing (colistin [1]): 256 µg/mL
minimum concentration of killing (tobramycin [2]): 16 µg/mL
minimum concentration of killing (tobramycin [3]): 64 µg/mL
minimum concentration of killing (colistin [4]): 256 µg/mL
minimum concentration of killing (tobramycin [5]): 256 µg/mL
minimum concentration eradicating biofilm below detection limit (colistin [6]): 256 µg/mL
minimum concentration eradicating biofilm below detection limit (tobramycin [7]): > 1020 µg/mL
minimum concentration of killing (colistin [8]): 256 µg/mL

Pseudomonas aeruginosa clinical isolate CH2677
minimum concentration of killing (colistin [1]): 256 µg/mL
minimum concentration of killing (tobramycin [2]): 256 µg/mL
minimum concentration of killing (tobramycin [3]): 1020 µg/mL
minimum concentration of killing (colistin [4]): 64 µg/mL
minimum concentration of killing (tobramycin [5]): 1020 µg/mL
minimum concentration eradicating biofilm below detection limit (colistin [6]): 256 µg/mL
minimum concentration eradicating biofilm below detection limit (tobramycin [7]): > 1020 µg/mL
minimum concentration of killing (colistin [8]): 64 µg/mL

Pseudomonas aeruginosa clinical isolate CH5550
minimum concentration of killing (colistin [1]): > 1020 µg/mL
minimum concentration of killing (tobramycin [2]): 16 µg/mL
minimum concentration of killing (tobramycin [3]): 16 µg/mL
minimum concentration of killing (colistin [4]): 256 µg/mL
minimum concentration of killing (tobramycin [5]): 1020 µg/mL
minimum concentration eradicating biofilm below detection limit (colistin [6]): > 1020 µg/mL
minimum concentration eradicating biofilm below detection limit (tobramycin [7]): 1020 µg/mL
minimum concentration of killing (colistin [8]): 256 µg/mL

Pseudomonas aeruginosa clinical isolate ESP057
minimum concentration of killing (colistin [1]): 256 µg/mL
minimum concentration of killing (tobramycin [2]): ≤ 1 µg/mL
minimum concentration of killing (colistin [4]): 256 µg/mL
minimum concentration of killing (tobramycin [5]): 256 µg/mL
minimum concentration eradicating biofilm below detection limit (colistin [6]): 256 µg/mL
minimum concentration eradicating biofilm below detection limit (tobramycin [7]): 256 µg/mL
minimum concentration of killing (colistin [8]): 256 µg/mL

Pseudomonas aeruginosa clinical isolate F1894
minimum concentration of killing (colistin [1]): 256 µg/mL
minimum concentration of killing (tobramycin [2]): 4 µg/mL
minimum concentration of killing (tobramycin [3]): 16 µg/mL
minimum concentration of killing (colistin [4]): 256 µg/mL
minimum concentration eradicating biofilm below detection limit (colistin [6]): 256 µg/mL
minimum concentration eradicating biofilm below detection limit (tobramycin [7]): 256 µg/mL
minimum concentration of killing (colistin [8]): 256 µg/mL

Pseudomonas aeruginosa clinical isolate F2026
minimum concentration of killing (colistin [1]): 256 µg/mL
minimum concentration of killing (tobramycin [3]): 256 µg/mL
minimum concentration of killing (colistin [4]): 256 µg/mL
minimum concentration of killing (tobramycin [5]): > 1020 µg/mL
minimum concentration eradicating biofilm below detection limit (colistin [6]): 256 µg/mL
minimum concentration eradicating biofilm below detection limit (tobramycin [7]): > 1020 µg/mL
minimum concentration of killing (colistin [8]): 256 µg/mL

Pseudomonas aeruginosa clinical isolate F2029
minimum concentration of killing (colistin [1]): 256 µg/mL
minimum concentration of killing (colistin [4]): 256 µg/mL
minimum concentration of killing (tobramycin [5]): 256 µg/mL
minimum concentration eradicating biofilm below detection limit (colistin [6]): 256 µg/mL
minimum concentration eradicating biofilm below detection limit (tobramycin [7]): 256 µg/mL
minimum concentration of killing (colistin [8]): 256 µg/mL

Pseudomonas aeruginosa clinical isolate F2030
minimum concentration of killing (colistin [1]): 256 µg/mL
minimum concentration of killing (colistin [4]): 256 µg/mL
minimum concentration of killing (tobramycin [5]): 1020 µg/mL
minimum concentration eradicating biofilm below detection limit (colistin [6]): 256 µg/mL
minimum concentration of killing (colistin [8]): 64 µg/mL
